Laboratory results from patent US20170072012A1, “USE OF GSMTX4 TO REDUCE ISCHEMIA REPERFUSION INJURY” (priority 2014, published 2017).

Key:
[1] = test system: ischemic reperfusion injury in mouse heart; format: in vivo, C57B1/6J mice; details: 0.4 mg/kg tail vein 5 min before reperfusion; 4 h reperfusion; vehicle 16.5±1.2%; not statistically significant
Experimental: Acute GsMTx4-D treatment: All animal protocols in this study were approved by the Institutional Animal Care and Use Committee of the University at Buffalo-State University of New York. C57B1/6J mice were anesthetized with 80 mg/kg of sodium pentobarbital (Sigma, St. Louis, Mo.) via intraperitoneal injection (IP), intubated and ventilated with a respirator (Harvard apparatus, Holliston, Mass., USA) 17. Upon absence of a pedal reflex, surgery was performed under a stereomicroscope. Core body temperature was maintained at 37° C. with a heating pad. After a left lateral thoracotomy, the left anterior descending coronary artery (LAD) was occluded just underneath the left atrium for 20 min with an 8-0 nylon suture. […] A small piece of gauze was used to prevent arterial injury. After 20 min the ligature was removed and the tissue was reperfused for up to 4 h before euthanizing. Three different doses of GsMTx4-D (0.1, 1, 10 mg/kg), verapamil (0.4 mg/kg) or vehicle (saline 50 μL) were administered via tail vein injection 5 min before reperfusion (during induced ischemia). ECGs confirmed the hallmark ischemic ST segment elevation during coronary occlusion (AD Instruments, Colorado Springs, CO, USA). Each group included 5 independent experiments. At the conclusion of the study, mice were euthanized by IP injection of 270 mg/kg pentobarbital. GsMTx4-D pretreatment: To evaluate the effect of GsMTx4-D pretreatment, GsMTx4-D (50 mg/kg) or vehicle (saline 50 μL) were administered via IP injection once daily for 2 days prior to surgery. Ischemia was then elicited with the same 20 min coronary occlusion followed by 24 h reperfusion. Following reperfusion, the chest was closed in layers. A drop of lidocaine was put on the suture site and the mouse was slowly weaned off the ventilator when they resumed spontaneous breathing. The mouse was returned to its cage and kept warm and medicated for pain (buprenorphine). Each group included 5 independent experiments.
To measure infarct size, hearts were harvested and excised for dual staining at the conclusion of reperfusion. The non-necrotic tissue in the ischemic region was stained red with 2,3,5- triphenyltetrazolium (TTC) and non-ischemic regions were stained blue with Evans blue. The hearts were fixed and sectioned into 1 mm slices, photographed with a Lexica MZ95 microscope and analyzed with NIH ImageJ software (http://imagej.nih.gov/ij/) 19. The infarct size was calculated as the ratio of the percentage of myocardial necrosis to the ischemic Area At Risk (AAR).
To test whether GsMTx4-D protected the heart against reperfusion injury, we first tested three different doses of the peptide. The positive control was verapamil, a voltage-gated calcium channel inhibitor with established cardioprotective effects on IRI. C57B1/6 mice were subjected to 20 min occlusion of the LAD followed by 4 hours of reperfusion. Three different concentrations of GsMTx4-D (0.1, 1 and 10 mg/kg), verapamil (0.4 mg/kg), or vehicle (saline) were administered through tail vein injection 5 min before reperfusion. […] At the conclusion of reperfusion, the hearts were stained with TTC and Evans Blue (FIG. 2A). […] The verapamil group also had lower infarction size (14.0±0.4%), but the difference wasn't statistically significant. […] To evaluate whether pretreatment with GsMTx4-D could also protect the heart from I/R injury, GsMTx4-D (50 mg/kg) or vehicle (saline 50 μL) were administered daily via IP injection, for 2 days prior to I/R surgery. As before, ischemia was induced from 20 min LAD occlusion, but reperfusion was allowed to continue for 24 hrs. The chest was closed in layers, and animals were weaned off the ventilator when they resumed spontaneous breathing. […] The ratios of AAR to total myocardial area between the two groups were equal as determined by TTC and Evans Blue staining (FIG. 3A and B). […]

[2] = test system: I/R induced arrhythmias in mouse heart; experiment: Heart rhythm analysis (ECG) during reperfusion, I/R induced arrhythmia; format: in vivo, C57B1/6J mice; details: 0.4 mg/kg IV 5 min before reperfusion; vehicle 14.9±4.5; not significantly different
Experimental: During reperfusion we continuously recorded ECGs, from which mean heart rate, PR, QRS, and QT intervals were derived for each animal. We evaluated the incidence of arrhythmias by counting the incidences of arrhythmias including ventricular and supraventricular premature beats by summing the number of episodes based on limb lead recordings for 15 min after reperfusion. Ventricular premature beats are considered more severe. Each group contained 5 to 7 independent experiments (vehicle n=7, verapamil n=6, GsMTx4-D 0.1mg/kg n=5, 1 mg/kg n=6 and 10 mg/kg n=5).
Heart rate and rhythm were monitored by ECG to confirm the hallmark ischemic ST-segment elevation during coronary occlusion, and the gradually increasing inversion of the T-wave during reperfusion (FIG. 4A). Since generation of arrhythmias is a good indicator of the level of I/R damage, we counted ventricular and supraventricular premature beats occurring within 15 min of reperfusion (FIG. 4B). No ventricular tachycardia was observed during 20 min ischemia and 15 min reperfusion in the mouse heart. […] Considering that ventricular premature beats are indicative of more severe damage, the incidence of this specific arrhythmia was analyzed separately (FIG. 4 D). […] There was no difference in mean heart rate before ischemia (FIG. 4E). […] There was no difference in PR, QRS or QT intervals after treatment in all groups (data not shown).

COc1ccc(CCN(C)CCCC(C#N)(c2ccc(OC)c(OC)c2)C(C)C)cc1OC (centres unmarked) [verapamil, reference compound]
infarction size (infarct area / AAR) [1]: 14.0±0.4%
total incidence of arrhythmias (ventricular and supraventricular premature beats) [2]: 5.7±1.2 incidence/15 min reperfusion
